Data on one compound can be found in US8686016B2, “Schweinfurthins and uses thereof” (The United States of America, as represented by the …, priority 2009, dated 2014).

Assay [1] relates to KR158 astrocytoma cells (Nf1−/−; Trp53−/−). As to the kind of experiment: XTT cell proliferation assay, KR158. It is filed as cell-based, mouse. The procedure: (§1) XTT Cell Proliferation Assay: Cells were seeded into 96-well plates at a density of 2,000 cells/well and allowed to reattach overnight. Cells were treated with SA, synthetic analogs, camptothecin (NCI Chemotherapeutics Repository, Md., USA), or DMSO control at the indicated concentrations continuously for 48 hours followed by assay in the 96-well plate for relative viable cell number using the dye […] (XTT) and a Wallac-Victor 2 plate reader (Perkin-Elmer, Waltham, Mass., USA). Absorbance was determined at 450 nm with 650 nm as a reference reading. Primary astrocytes were additionally assayed at a 96 hour time point.
A general note: Tetrazolium dyes change colour on reduction, which living cells bring about.

Another assay deals with A549 cells. As to the kind of experiment: XTT cell proliferation assay, A549. In kind it is cell-based, human. To be noted: 48 hours. The procedure: as §1
The test system of assay [2] is phosphorylation of Ser 19 on myosin light chain 2 (MLC2). In words: Phospho-myosin light chain 2 immunostaining, KR158. It is filed as cell-based, mouse. The following applies: KR158 cells treated with SA and EGF. The procedure:
Cell Morphology Assays and Confocal Microscopy: To assay cytoskeleton morphology, KR158 cells, mouse primary astrocytes, KR158 clones expressing the NF1-GRD constructs, K14553 cells, and A549 were seeded to cover slips and allowed to reattach overnight. Cells were treated for 18 hours with either the indicated concentrations of SA, or the vehicle control DMSO. The cover slips were fixed in 3.7% paraformaldehyde, permeablized in 0.1% Triton-X100, and stained with Alexa Fluor 488-phalloidin (Invitrogen, Carlsbad, Calif., USA) to detect actin and cells were mounted in Prolong Antifade containing DAPI (Invitrogen) to stain nuclei. The cells were imaged on a LSM510 confocal microscope (Carl Zeiss Inc., Jena, Germany). For phospho-myosin light chain 2 (MLC) detection, cells were seeded to coverslips as described above. Cells were serum starved in 0.5% FBS and SA or DMSO vehicle control for 18 hours, and then pulsed with 10 ng/mL EGF (Invitrogen) for 5 min. […] Actin structures were monitored continuously over a 16 hr period using confocal microscopy equipped with a growth chamber (37° C., humidified atmosphere and 5% CO2). […]

Entries after “also recorded” stand apart in the source; their conditions may differ.

As usually defined, the GI50 is the concentration that inhibits growth by half. Lower therefore signals more potent growth inhibition. Regarding `CC(C)=CCC/C(C)=C/Cc1c(O)cc(/C=C/c2cc(O)c3c(c2)C[C@@H]2C(C)(C)[C@H](O)[C@H](O)C[C@@]2(C)O3)cc1O` [SA, Schweinfurthin A], the “inhibition of proliferation (percent viability versus control)” value in assay [1] (48 hours, XTT) is “highly active; also recorded: sensitive; also recorded: inhibited both the KR158 and SF-295 cell lines in a dose dependent manner”; in the assay on A549 cells it was “does not inhibit; also recorded: no apparent effect”. Also, in assay [1] (Mus musculus, KR158, Nf1-mutant astrocytoma cells), it took 10 nM to inhibit growth by half (GI50). The “MLC phosphorylation (Ser 19)” value in assay [2] is given as “dose dependent decrease of MLC phosphorylation”.
